IC50 data for 27 compounds are collected here from US8471005B2 (Cephalon, Inc., priority 2008, dated 2013).

Where two headings read alike, the source gives them in different places.

The target in one experiment is T1, ALK (Homo sapiens, UniProt Q9UM73).
T1 construct: host or cells: baculovirus expression system
Nature of the experiment: ALK Kinase Assay (ELISA/TRF, PLC-γ substrate). It counts as biochemical. To be noted: read-out: ALK Potency. The method in brief:
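Time-resolved fluorescence ELISA using Eu-N1 PT66 antibody to detect phosphorylated PLC-γ (coated at 10 μg/mL). Enzyme at 30 ng/ml ALK; 15 min incubation, 37° C.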
In general terms: ELISA stands for enzyme-linked immunosorbent assay.

The target in the next experiment is T2, JAK2 (Homo sapiens, UniProt O60674).
T2 construct: host or cells: baculovirus expression system
The experiment can be described thus: Recombinant Human JAK2 Kinase Assay (TRF). The experiment is classed as biochemical. The conditions noted are these: read-out: JAK2 Potency. Put shortly: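 TRF read-out: Eu-N1 PY100 anti-phosphotyrosine antibody detects product. Enzyme is baculovirus-expressed JAK2 at 15 ng/ml; substrate is a biotinyl 15-mer peptide bound to Neutravidin-coated wells. Buffer 20 mM HEPES pH 7.2, 0.2 μM ATP, 1 mM MnCl2, 0.1% BSA, 2.5% DMSO final; 20 min, RT.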

The mark [1] stands for this setting: ALK kinase inhibition, 1 μM ATP.
Setting [2] is: JAK2 kinase inhibition, 0.2 μM ATP.

T1 sequence (Q9UM73 19-1620): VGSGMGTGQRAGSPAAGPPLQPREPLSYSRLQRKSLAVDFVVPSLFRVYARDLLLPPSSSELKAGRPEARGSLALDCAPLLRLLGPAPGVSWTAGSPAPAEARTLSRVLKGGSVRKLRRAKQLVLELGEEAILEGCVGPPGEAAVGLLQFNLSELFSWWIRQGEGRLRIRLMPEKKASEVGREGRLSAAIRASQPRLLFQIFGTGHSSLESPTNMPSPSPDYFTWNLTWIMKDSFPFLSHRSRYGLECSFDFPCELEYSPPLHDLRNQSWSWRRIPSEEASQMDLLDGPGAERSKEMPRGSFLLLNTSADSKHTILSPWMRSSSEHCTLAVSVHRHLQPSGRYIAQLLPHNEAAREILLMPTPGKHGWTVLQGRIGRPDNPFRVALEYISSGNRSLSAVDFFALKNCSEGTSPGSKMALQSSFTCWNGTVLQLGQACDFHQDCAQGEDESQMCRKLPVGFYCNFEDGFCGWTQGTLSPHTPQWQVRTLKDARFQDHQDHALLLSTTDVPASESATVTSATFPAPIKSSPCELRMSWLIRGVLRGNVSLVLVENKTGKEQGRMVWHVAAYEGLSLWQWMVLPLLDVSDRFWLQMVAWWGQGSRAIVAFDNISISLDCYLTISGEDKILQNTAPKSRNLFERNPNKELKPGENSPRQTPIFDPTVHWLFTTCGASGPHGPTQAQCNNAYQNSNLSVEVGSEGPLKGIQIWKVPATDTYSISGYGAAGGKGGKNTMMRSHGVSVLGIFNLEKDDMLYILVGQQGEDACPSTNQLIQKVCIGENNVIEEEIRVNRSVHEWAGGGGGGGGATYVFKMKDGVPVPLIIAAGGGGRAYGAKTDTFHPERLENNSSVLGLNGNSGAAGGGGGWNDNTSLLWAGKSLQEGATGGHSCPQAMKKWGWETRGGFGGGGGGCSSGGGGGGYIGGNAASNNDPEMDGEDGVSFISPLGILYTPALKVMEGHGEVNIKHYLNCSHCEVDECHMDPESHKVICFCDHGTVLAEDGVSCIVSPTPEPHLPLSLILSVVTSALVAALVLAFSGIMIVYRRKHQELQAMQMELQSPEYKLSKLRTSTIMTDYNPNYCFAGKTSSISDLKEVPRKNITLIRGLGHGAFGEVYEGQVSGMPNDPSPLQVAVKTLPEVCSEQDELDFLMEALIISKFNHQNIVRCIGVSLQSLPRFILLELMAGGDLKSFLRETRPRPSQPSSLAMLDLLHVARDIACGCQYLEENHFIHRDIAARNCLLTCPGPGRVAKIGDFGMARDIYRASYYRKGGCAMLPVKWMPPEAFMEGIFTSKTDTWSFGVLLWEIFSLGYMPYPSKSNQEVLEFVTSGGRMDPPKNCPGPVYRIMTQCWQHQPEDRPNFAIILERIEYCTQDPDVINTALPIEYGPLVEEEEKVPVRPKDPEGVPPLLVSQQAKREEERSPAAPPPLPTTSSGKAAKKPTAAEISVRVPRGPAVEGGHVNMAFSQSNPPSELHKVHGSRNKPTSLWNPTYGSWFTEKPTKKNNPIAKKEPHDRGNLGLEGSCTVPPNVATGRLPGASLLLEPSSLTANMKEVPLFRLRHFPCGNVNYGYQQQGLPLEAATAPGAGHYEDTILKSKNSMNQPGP
T2 sequence (O60674 whole entry): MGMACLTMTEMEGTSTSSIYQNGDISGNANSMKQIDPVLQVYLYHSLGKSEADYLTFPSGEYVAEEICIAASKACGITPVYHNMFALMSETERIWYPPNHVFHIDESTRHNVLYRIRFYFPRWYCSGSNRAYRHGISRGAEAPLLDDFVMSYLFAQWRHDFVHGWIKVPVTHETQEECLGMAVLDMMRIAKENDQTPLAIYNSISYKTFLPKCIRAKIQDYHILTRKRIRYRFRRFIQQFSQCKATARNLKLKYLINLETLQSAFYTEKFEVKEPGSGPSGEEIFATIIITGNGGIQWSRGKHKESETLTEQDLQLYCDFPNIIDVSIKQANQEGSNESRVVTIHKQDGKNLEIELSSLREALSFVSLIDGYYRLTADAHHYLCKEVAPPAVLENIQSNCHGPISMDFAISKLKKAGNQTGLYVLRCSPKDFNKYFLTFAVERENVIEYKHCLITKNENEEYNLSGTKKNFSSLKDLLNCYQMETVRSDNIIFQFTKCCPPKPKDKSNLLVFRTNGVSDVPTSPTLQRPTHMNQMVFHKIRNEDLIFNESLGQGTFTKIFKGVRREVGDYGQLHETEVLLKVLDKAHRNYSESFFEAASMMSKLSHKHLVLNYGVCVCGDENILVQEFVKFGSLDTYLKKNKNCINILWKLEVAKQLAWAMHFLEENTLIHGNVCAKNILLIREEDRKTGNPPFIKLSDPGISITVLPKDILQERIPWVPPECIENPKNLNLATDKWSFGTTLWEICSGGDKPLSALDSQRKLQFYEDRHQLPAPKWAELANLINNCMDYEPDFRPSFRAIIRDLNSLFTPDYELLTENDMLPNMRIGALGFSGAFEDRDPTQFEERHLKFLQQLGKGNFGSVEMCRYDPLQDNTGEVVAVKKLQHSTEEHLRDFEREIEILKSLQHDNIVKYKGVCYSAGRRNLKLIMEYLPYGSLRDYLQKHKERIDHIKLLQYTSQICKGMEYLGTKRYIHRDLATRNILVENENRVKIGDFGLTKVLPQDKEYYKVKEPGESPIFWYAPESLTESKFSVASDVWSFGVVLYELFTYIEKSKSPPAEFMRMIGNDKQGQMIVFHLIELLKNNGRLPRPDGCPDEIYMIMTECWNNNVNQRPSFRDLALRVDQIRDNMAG

On to `CC(C)(C)NS(=O)(=O)c1cccc(-c2ccc3cnc(Nc4cccc(N5CCCC5=O)c4)nn23)c1` [Example 1383, N-tert-Butyl-3-{2-[3-(2-oxo-pyrrolidin-1-yl)-phenylamino]-pyrrolo[2,1-f][1,2,4]triazin-7-yl}-benzenesulfonamide], for which the IC50 on ALK (ALK Kinase Inhibition) was 1000 to 10000 nM; on JAK2 (JAK2 Kinase Inhibition), less than 100 nM.

With `Cn1cc(-c2ccc3cnc(Nc4ccc5c(c4)CCC(N4CCOCC4)CC5)nn23)cn1` (stereo not drawn) [Example 1201, [7-(1-Methyl-1H-pyrazol-4-yl)-pyrrolo[2,1-f][1,2,4]triazin-2-yl]-(7-morpholin-4-yl-6,7,8,9-tetrahydro-5H-benzocyclohepten-2-yl)-amine], the results for the IC50 at ALK (setting [1]) and at JAK2 (setting [2]) were 100 to 1000 nM and less than 100 nM, respectively.

For the compound `COc1ccccc1-c1ccc2cnc(Nc3cccc(C4(O)CCNCC4)c3)nn12` [Example 1565, 4-{3-[7-(2-Methoxy-phenyl)-pyrrolo[2,1-f][1,2,4]triazin-2-ylamino]-phenyl}-piperidin-4-ol], the IC50 at ALK (ALK Kinase Inhibition) and at JAK2 (JAK2 Kinase Inhibition) was less than 100 nM in each case.

`COc1cc(CN2C[C@@H](O)[C@H](O)C2)ccc1Nc1ncc2ccc(-c3ccccc3N(C)S(C)(=O)=O)n2n1` [Example 1236, N-(2-{2-[4-((3R,4R)-3,4-Dihydroxy-pyrrolidin-1-ylmethyl)-2-methoxy-phenylamino]-pyrrolo[2,1-f][1,2,4]triazin-7-yl}-phenyl)-N-methyl-methanesulfonamide]: the IC50 on ALK (setting [1]) was less than 100 nM; on JAK2 (setting [2]) it was 1000 to 10000 nM.

Take `CN1CCN(c2ccc(Nc3ncc4ccc(-c5cccc(NS(C)(=O)=O)c5)n4n3)cn2)CC1` [Example 1122, N-(3-{2-[6-(4-Methyl-piperazin-1-yl)-pyridin-3-ylamino]-pyrrolo[2,1-f][1,2,4]triazin-7-yl}-phenyl)-methanesulfonamide]: the results for the IC50 on ALK (setting [1]) and on JAK2 (setting [2]) were 100 to 1000 nM and less than 100 nM, respectively.

Take `O=S(=O)(c1cccc(-c2ccc3cnc(Nc4ccc(-c5cccnc5)cc4)nn23)c1)N1CCOCC1` [Example 1090, {7-[3-(Morpholine-4-sulfonyl)-phenyl]-pyrrolo[2,1-f][1,2,4]triazin-2-yl}-(4-pyridin-3-yl-phenyl)-amine]: the IC50 on ALK (setting [1]) is 1000 to 10000 nM; at JAK2 (setting [2]), less than 100 nM.

For `CC(=O)Nc1ccccc1-c1ccc2cnc(Nc3ccc(N4CCC(N5CCOCC5)CC4)cc3)nn12` [Example 454, N-(2-{2-[4-(4-Morpholin-4-yl-piperidin-1-yl)-phenylamino]-pyrrolo[2,1-f][1,2,4]triazin-7-yl}-phenyl)-acetamide], the IC50 at ALK (ALK Kinase Inhibition) was 100 to 1000 nM; on JAK2 (JAK2 Kinase Inhibition), less than 100 nM.

Regarding `CN1CCN(c2ccc(Nc3ncc4ccc(-c5cccnc5)n4n3)cc2)CC1` [Example 27, [4-(4-Methyl-piperazin-1-yl)-phenyl]-(7-pyridin-3-yl-pyrrolo[2,1-f][1,2,4]triazin-2-yl)-amine], the IC50 at ALK (ALK Kinase Inhibition) was 100 to 1000 nM; on JAK2 (JAK2 Kinase Inhibition), less than 100 nM.

As to `c1ccc(Nc2ncc3cc4ccccc4n3n2)cc1` [Example 270, Phenyl-[1,2,4]triazino[1,6-a]indol-2-yl-amine], the IC50 was greater than 10000 nM on ALK (ALK Kinase Inhibition) and 100 to 1000 nM at JAK2 (JAK2 Kinase Inhibition).

With `COc1ccc(Nc2ncc3ccc(-c4cc(Cl)ccc4OC)n3n2)cc1OC` [Example 151, [7-(5-Chloro-2-methoxy-phenyl)-pyrrolo[2,1-f][1,2,4]triazin-2-yl]-(3,4-dimethoxy-phenyl)-amine], the IC50 is 100 to 1000 nM on ALK (ALK Kinase Inhibition) and less than 100 nM on JAK2 (JAK2 Kinase Inhibition).

For the compound `CN1CCC(c2ccc(Nc3ncc4ccc(-c5cccc(S(=O)(=O)N(C)C)c5)n4n3)cc2)CC1` [Example 902, N,N-Dimethyl-3-{2-[4-(1-methyl-piperidin-4-yl)phenylamino]-pyrrolo[2,1-f][1,2,4]triazin-7-yl}-benzenesulfonamide], the IC50 is 100 to 1000 nM on ALK (setting [1]) and less than 100 nM on JAK2 (setting [2]).

In the case of `CS(=O)(=O)c1cccc(-c2ccc3cnc(Nc4ccc(N5CCOCC5)cc4)nn23)c1` [Example 43, [7-(3-Methanesulfonyl-phenyl)-pyrrolo[2,1-f][1,2,4]triazin-2-yl]-(4-morpholin-4-yl-phenyl)-amine], the figures for the IC50 on ALK (ALK Kinase Inhibition) and on JAK2 (JAK2 Kinase Inhibition) were 100 to 1000 nM and less than 100 nM, respectively.

`COc1ccc(-c2ccc3cnc(Nc4ccc(C5CN(C)CCN5C)cc4)nn23)cn1` (stereo not drawn) [Example 1530, [4-(1,4-Dimethyl-piperazin-2-yl)-phenyl]-[7-(6-methoxy-pyridin-3-yl)-pyrrolo[2,1-f][1,2,4]triazin-2-yl]-amine]: the IC50 is 100 to 1000 nM on ALK (ALK Kinase Inhibition) and less than 100 nM on JAK2 (JAK2 Kinase Inhibition).

Take `COc1ccccc1-c1ccc2cnc(Nc3ccc(N4CCCC(CN5CCN(C)CC5)C4)cc3)nn12` (stereo not drawn) [Example 456, [7-(2-Methoxy-phenyl)-pyrrolo[2,1-f][1,2,4]triazin-2-yl]-{4-[3-(4-methyl-piperazin-1-ylmethyl)-piperidin-1-yl]-phenyl}-amine]: the IC50 on ALK (ALK Kinase Inhibition) and on JAK2 (JAK2 Kinase Inhibition) was less than 100 nM each time.

With `COc1ccc(CN2CCOCC2)cc1Nc1ncc2ccc(-c3ccccc3OC)n2n1` [Example 499, (2-Methoxy-5-morpholin-4-ylmethyl-phenyl)-[7-(2-methoxy-phenyl)-pyrrolo[2,1-f][1,2,4]triazin-2-yl]-amine], the IC50 was in the range of 1000 to 10000 nM on ALK (setting [1]) and 100 to 1000 nM on JAK2 (setting [2]).

Turning to `COc1cc(C2CCN(C[C@H](O)C(F)(F)F)CC2)ccc1Nc1ncc2ccc(-c3ccccc3OC)n2n1` [Example 799, (S)-1,1,1-Trifluoro-3-(4-{3-methoxy-4-[7-(2-methoxy-phenyl)-pyrrolo[2,1-f][1,2,4]triazin-2-ylamino]-phenyl}-piperidin-1-yl)-propan-2-ol], the IC50 was less than 100 nM at ALK (setting [1]) and 100 to 1000 nM at JAK2 (setting [2]).

Regarding `CS(=O)(=O)c1cccc(-c2ccc3cnc(Nc4ccc(C5(C#N)CCN(CC(N)=O)CC5)cc4)nn23)c1` [Example 1546, 2-(4-Cyano-4-{4-[7-(3-methanesulfonyl-phenyl)-pyrrolo[2,1-f][1,2,4]triazin-2-ylamino]-phenyl}-piperidin-1-yl)-acetamide], the values for the IC50 at ALK (ALK Kinase Inhibition) and on JAK2 (JAK2 Kinase Inhibition) were 1000 to 10000 nM and less than 100 nM, respectively.

In the case of `COc1ccc(Cl)cc1-c1ccc2cnc(Nc3ccc4c(c3)CC(=O)N4C)nn12` [Example 360, 5-[7-(5-Chloro-2-methoxy-phenyl)-pyrrolo[2,1-f][1,2,4]triazin-2-ylamino]-1-methyl-1,3-dihydro-indol-2-one], the IC50 at ALK (ALK Kinase Inhibition) was 100 to 1000 nM; on JAK2 (JAK2 Kinase Inhibition), less than 100 nM.

For the compound `CN1CCN(c2cccc(Nc3ncc4ccc(-c5cn[nH]c5)n4n3)c2)CC1` [Example 970, [3-(4-Methyl-piperazin-1-yl)-phenyl]-[7-(1H-pyrazol-4yl)-pyrrolo[2,1-f][1,2,4]triazin-2-yl]-amine], the results for the IC50 on ALK (setting [1]) and at JAK2 (setting [2]) were 100 to 1000 nM and less than 100 nM, respectively.

In the case of `COc1ccc(-c2ccc3cnc(Nc4ccc(-c5cccnc5)cc4)nn23)cn1` [Example 1088, [7-(6-Methoxy-pyridin-3-yl)-pyrrolo[2,1-f][1,2,4]triazin-2-yl]-(4-pyridin-3-yl-phenyl)-amine], the IC50 at ALK (setting [1]) was 1000 to 10000 nM; at JAK2 (setting [2]) it was less than 100 nM.

For `CC(C)(C)NS(=O)(=O)c1cccc(-c2ccc3cnc(Nc4cccc(C5(O)CCNCC5)c4)nn23)c1` [Example 1550, N-tert-Butyl-3-{2-[3-(4-hydroxy-piperidin-4-yl)-phenylamino]-pyrrolo[2,1-f][1,2,4]triazin-7-yl}-benzenesulfonamide], the IC50 on ALK (ALK Kinase Inhibition) and at JAK2 (JAK2 Kinase Inhibition) was less than 100 nM throughout.

As for `COc1ccccc1-c1ccc2cnc(Nc3ccc4c(c3)N(C(C)=O)CCCC4)nn12` [Example 639, 1-{8-[7-(2-Methoxyphenyl)-pyrrolo[2,1-f][1,2,4]triazin-2-ylamino]-2,3,4,5-tetrahydrobenzo[b]azepin-1-yl}ethanone], the figures for the IC50 on ALK (setting [1]) and on JAK2 (setting [2]) were 1000 to 10000 nM and less than 100 nM, respectively.

For the compound `CC(C)(C)NS(=O)(=O)c1cccc(-c2ccc3cnc(Nc4ccc(C5CCC(O)CC5)cc4)nn23)c1` (stereo not drawn) [Example 568, N-tert-Butyl-3-{2-[4-(4-hydroxy-cyclohexyl)-phenylamino]-pyrrolo[2,1-f][1,2,4]triazin-7-yl}-benzenesulfonamide], the IC50 was 100 to 1000 nM on ALK (setting [1]) and less than 100 nM on JAK2 (setting [2]).

Consider `COc1cc(C2CCN(CC(N)=O)CC2)ccc1Nc1ncc2ccc(-c3ccccc3-n3cccn3)n2n1` [Example 854, 2-(4-{3-Methoxy-4-[7-(2-pyrazol-1-yl-phenyl)-pyrrolo[2,1-f][1,2,4]triazin-2-ylamino]-phenyl}-piperidin-1-yl)-acetamide], for which the figures for the IC50 at ALK (setting [1]) and at JAK2 (setting [2]) were less than 100 nM and greater than 10000 nM, respectively.

In the case of `COc1ccc(-c2ccc3cnc(Nc4ccc(CN5CCCC5)cc4)nn23)cn1` [Example 1405, [7-(6-Methoxy-pyridin-3-yl)-pyrrolo[2,1-f][1,2,4]triazin-2-yl]-(4-pyrrolidin-1-ylmethyl-phenyl)-amine], the figures for the IC50 on ALK (ALK Kinase Inhibition) and at JAK2 (JAK2 Kinase Inhibition) were 1000 to 10000 nM and less than 100 nM, respectively.

Regarding `COCCn1cc(-c2ccc3cnc(Nc4cccc(N5CCN(C)CC5)c4)nn23)cn1` [Example 972, {7-[1-(2-Methoxy-ethyl)-1H-pyrazol-4-yl]-pyrrolo[2,1-f][1,2,4]triazin-2-yl}-[3-(4-methyl-piperazin-1-yl)-phenyl]-amine], the IC50 on ALK (setting [1]) is 1000 to 10000 nM; on JAK2 (setting [2]) it was less than 100 nM.

Consider `COc1ccccc1-c1ccc2cnc(Nc3ccc4c(c3)CC(=O)N4)nn12` [Example 432, 5-[7-(2-Methoxy-phenyl)-pyrrolo[2,1-f][1,2,4]triazin-2-ylamino]-1,3-dihydro-indol-2-one], for which the IC50 on ALK (ALK Kinase Inhibition) was 100 to 1000 nM; at JAK2 (JAK2 Kinase Inhibition) it was less than 100 nM.
